# Experimental data published in the supplement of paper PMC10307832.
# Columns and labels:
# Test in all cases: relative viability (nuclei count vs DMSO), 5 days (fraction); higher = more cells survive
# [1] = compound: COC1=CC=C(C=C1)CN2C=CC3=C2C=C(C=C3)C(=O)NO
# Summary of the method: (§1)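 Lung cancer cell lines in 1536-well plates were exposed by pinning to five library-drug doses (not always all listed) √10 apart, following an overnight hold at 37 °C. MetaXpress counted Hoechst-stained nuclei from 4× images taken after 5 days without medium change. Viability is the median ratio of treated-well to vehicle-well nuclei across plates. Plates required control CV below 25% and at least one doubling.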
# Veliparib = compound: C[C@]1(c2nc3c(C(N)=O)cccc3[nH]2)CCCN1 [Veliparib]
# Summary of the method: as §1
# [2] = compound: COC1=CC=C(C=C1)CN2C=CC3=C2C=C(C=C3)C(=O)NO + COc1cc2c(Oc3ccc(NC(=O)C4(C(=O)Nc5ccc(F)cc5)CC4)cc3F)ccnc2cc1OCCCN1CCOCC1 [Foretinib] (partner 0.25 µM)
# Summary of the method: (§2)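 Dosing by pin tool came one day after lung cancer cell lines were seeded in 1536-well plates, using either one drug or a fixed anchor-drug dose plus five library-drug doses (not always all listed) in √10 steps. After 5 days, nuclei were counted on 4× images. Relative viability is treated-well nuclei count divided by vehicle-well nuclei count, and values are medians of duplicate plates.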
# [3] = compound: COC1=CC=C(C=C1)CN2C=CC3=C2C=C(C=C3)C(=O)NO + CS(=O)(=O)CCNCc1ccc(-c2ccc3ncnc(Nc4ccc(OCc5cccc(F)c5)c(Cl)c4)c3c2)o1 [Lapatinib] (partner 2 µM)
# Summary of the method: as §2
cell line,measurement,setting,value
SW 1573,relative viability,[1]; 0.253 µM,1.05
same,relative viability,[1]; 0.8 µM,1.09
same,relative viability,[1]; 2.53 µM,1.06
same,relative viability,[1]; 8 µM,0.759
same,relative viability,Veliparib; 0.02 µM,0.857
same,relative viability,Veliparib; 0.06325 µM,0.978
same,relative viability,Veliparib; 0.2 µM,0.917
same,relative viability,Veliparib; 0.6325 µM,0.885
same,relative viability,Veliparib; 2 µM,0.922
same,relative viability,[2]; first compound 0.253 µM,0.877
same,relative viability,[2]; first compound 0.8 µM,0.865
same,relative viability,[2]; first compound 2.53 µM,0.751
same,relative viability,[2]; first compound 8 µM,0.694
same,relative viability,[3]; first compound 0.253 µM,1.07
same,relative viability,[3]; first compound 0.8 µM,1.36
same,relative viability,[3]; first compound 2.53 µM,1.2
same,relative viability,[3]; first compound 8 µM,0.859
